Test results as given in ChEMBL document CHEMBL4196183, “Discovery of New Allosteric Modulators of the Urotensinergic System through Substitution of the Urotensin II-Related Peptide (URP) Phenylalanine Residue” (J Med Chem, 2018).
Activity calls are given as the source filed them. The calls are words filed in the database; no cut-off is given here.

What was measured:
[1] = molecular target: T1, Urotensin-2 receptor (Rattus norvegicus) (UniProt P49684); experiment: (§1) Antagonist activity at UT receptor in Sprague-Dawley rat thoracic aortic ring assessed as reduction in URP-induced contraction by measuring Emax for human urotensin-2-induced contraction at 1 x 10^-8M pre-incubated for 30 mins before urotensin-2 stimulation relative to KCl-induced contraction (reference value: 107 +/- 3%); assay type: functional
T1 sequence (whole entry): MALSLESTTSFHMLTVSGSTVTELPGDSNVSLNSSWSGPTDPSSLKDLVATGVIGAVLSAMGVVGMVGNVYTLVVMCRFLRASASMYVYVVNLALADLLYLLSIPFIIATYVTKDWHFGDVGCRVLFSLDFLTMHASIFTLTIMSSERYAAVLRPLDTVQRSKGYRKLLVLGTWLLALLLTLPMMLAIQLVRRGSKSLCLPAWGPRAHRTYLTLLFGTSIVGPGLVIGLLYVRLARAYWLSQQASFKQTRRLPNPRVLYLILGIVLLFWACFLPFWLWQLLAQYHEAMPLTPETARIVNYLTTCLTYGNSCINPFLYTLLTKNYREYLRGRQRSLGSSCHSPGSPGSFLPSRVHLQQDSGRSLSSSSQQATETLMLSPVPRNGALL

[2] = molecular target: T1, Urotensin-2 receptor (Rattus norvegicus); experiment: as §1, with “at 3” for “at 1”, “x 10^-9M” for “x 10^-8M”; assay type: functional
Urotensin-2 receptor [3] = molecular target: T2, Urotensin-2 receptor (Homo sapiens, UniProt Q9UKP6); experiment: Agonist activity at human UT receptor expressed in HEK293 cells co-expressing G12-polycistronic BRET biosensor assessed as induction of G12 activation measured for 5 mins by luminescence detection based BRET assay; assay type: functional, cell-based
T2 sequence (Q9UKP6 whole entry): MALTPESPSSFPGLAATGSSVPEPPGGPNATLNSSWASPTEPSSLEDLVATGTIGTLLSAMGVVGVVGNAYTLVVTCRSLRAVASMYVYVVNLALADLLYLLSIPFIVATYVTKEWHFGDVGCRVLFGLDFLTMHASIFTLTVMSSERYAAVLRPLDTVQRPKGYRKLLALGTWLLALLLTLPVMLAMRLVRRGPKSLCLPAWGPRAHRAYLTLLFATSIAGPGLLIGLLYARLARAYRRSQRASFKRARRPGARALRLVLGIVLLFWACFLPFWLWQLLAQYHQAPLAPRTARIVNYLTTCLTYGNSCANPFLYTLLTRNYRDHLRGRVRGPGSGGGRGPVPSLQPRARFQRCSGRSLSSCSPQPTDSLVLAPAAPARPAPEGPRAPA

[4] = molecular target: T1, Urotensin-2 receptor (Rattus norvegicus); experiment: Agonist activity at UT receptor in Sprague-Dawley rat thoracic aortic ring assessed as induction of contraction relative to KCl-induced contraction; assay type: functional
[5] = molecular target: T1, Urotensin-2 receptor (Rattus norvegicus); experiment: as §1, with “uM” for “x 10^-8M”; assay type: functional
[6] = molecular target: T1, Urotensin-2 receptor (Rattus norvegicus); experiment: as §1, with “at 3” for “at 1”, “x 10^-10M” for “x 10^-8M”; assay type: functional
[7] = molecular target: T3, Urotensin-2 receptor (Homo sapiens) (UniProt Q9UKP6); experiment: Bias factor, ratio of deltalog(Tau/KA) for agonist activity at human UT receptor expressed in HEK293 cells co-expressing G12-polycistronic BRET biosensor assessed as induction of G12 activation by luminescence detection based BRET assay to deltalog(Tau/KA) for agonist activity at human UT receptor expressed in HEK293 cells co-expressing Gq-polycistronic BRET biosensor assessed as induction of Gq activation by luminescence detection based BRET assay; assay type: functional, cell-based
T3 sequence (whole entry): T2 sequence (Q9UKP6 whole entry)

[8] = molecular target: T1, Urotensin-2 receptor (Rattus norvegicus); experiment: as §1, with “10^-7M” for “10^-8M”; assay type: functional
[9] = molecular target: T1, Urotensin-2 receptor (Rattus norvegicus); experiment: Antagonist activity at UT receptor in Sprague-Dawley rat thoracic aortic ring assessed as reduction in URP-induced contraction by measuring pEC50 for […] at 1 uM pre-incubated for 30 mins […] (reference value: 8.16 +/- 0.08); assay type: functional
[10] = molecular target: T3, Urotensin-2 receptor (Homo sapiens); experiment: Bias factor, ratio of deltalog(Tau/KA) for agonist activity at human UT receptor expressed in HEK293 cells co-expressing beta-arrestin1-polycistronic BRET biosensor assessed as induction of beta-arrestin1 recruitment by luminescence detection based BRET assay to deltalog(Tau/KA) for agonist activity at human UT receptor expressed in HEK293 cells co-expressing G12-polycistronic BRET biosensor assessed as induction of G12 activation by luminescence detection based BRET assay; assay type: functional, cell-based
[11] = molecular target: T3, Urotensin-2 receptor (Homo sapiens); experiment: Agonist activity at human UT receptor expressed in HEK293 cells co-expressing G12-polycistronic BRET biosensor assessed as induction of G12 activation measured for 5 mins by luminescence detection based BRET assay relative to 10 uM URP; assay type: functional, cell-based
[12] = molecular target: T3, Urotensin-2 receptor (Homo sapiens); experiment: Agonist activity at human UT receptor expressed in HEK293 cells co-expressing Gq-polycistronic BRET biosensor assessed as induction of Gq activation measured for 5 mins by luminescence detection based BRET assay relative to 10 uM URP; assay type: functional, cell-based
[13] = molecular target: T1, Urotensin-2 receptor (Rattus norvegicus); experiment: (§2) Antagonist activity at UT receptor in Sprague-Dawley rat thoracic aortic ring assessed as reduction in urotensin-2-induced contraction by measuring Emax for human urotensin-2-induced contraction at 1 x 10^-8M uM pre-incubated for 30 mins before urotensin-2 stimulation (reference value: 101 +/- 4%); assay type: functional
Urotensin-2 receptor [14] = molecular target: T2, Urotensin-2 receptor; experiment: Displacement of [Na125I]-synthetic URP from human UT receptor expressed in HEK293 cell membranes incubated for 2 hrs by gamma-counting
[15] = molecular target: T3, Urotensin-2 receptor (Homo sapiens); experiment: Bias factor, ratio of deltalog(Tau/KA) for agonist activity at human UT receptor expressed in HEK293 cells co-expressing G12-polycistronic BRET biosensor assessed as induction of G12 activation by luminescence detection based BRET assay to deltalog(Tau/KA) for agonist activity at human UT receptor expressed in HEK293 cells co-expressing beta-arrestin1-polycistronic BRET biosensor assessed as induction of beta-arrestin1 recruitment by luminescence detection based BRET assay; assay type: functional, cell-based
[16] = molecular target: T3, Urotensin-2 receptor (Homo sapiens); experiment: Selectivity index, change in deltalog(Tau/KA) for agonist activity at human UT receptor expressed in HEK293 cells co-expressing beta-arrestin1-polycistronic BRET biosensor assessed as induction of beta-arrestin1 recruitment by luminescence detection based BRET assay to deltalog(Tau/KA) for agonist activity at human UT receptor expressed in HEK293 cells co-expressing G12-polycistronic BRET biosensor assessed as induction of G12 activation by luminescence detection based BRET assay to; assay type: functional, cell-based
[17] = molecular target: T3, Urotensin-2 receptor (Homo sapiens); experiment: Bias factor, ratio of deltalog(Tau/KA) for agonist activity at human UT receptor expressed in HEK293 cells co-expressing Gq-polycistronic BRET biosensor assessed as induction of Gq activation by luminescence detection based BRET assay to deltalog(Tau/KA) for agonist activity at human UT receptor expressed in HEK293 cells co-expressing G12-polycistronic BRET biosensor assessed as induction of G12 activation by luminescence detection based BRET assay; assay type: functional, cell-based
[18] = molecular target: T1, Urotensin-2 receptor (Rattus norvegicus); experiment: Antagonist activity at UT receptor in Sprague-Dawley rat thoracic aortic ring assessed as reduction in urotensin-2-induced contraction by measuring pEC50 for human urotensin-2-induced contraction at 1 uM pre-incubated for 30 mins before urotensin-2 stimulation (reference value: 8.59 +/- 0.12); assay type: functional
Urotensin-2 receptor [19] = molecular target: T4, Urotensin-2 receptor (Rattus norvegicus, UniProt P49684); experiment: Agonist activity at UT receptor in Sprague-Dawley rat thoracic aortic ring assessed as induction of contraction; assay type: functional
T4 sequence (P49684 whole entry): T1 sequence (whole entry)

[20] = molecular target: T3, Urotensin-2 receptor (Homo sapiens); experiment: Agonist activity at human UT receptor expressed in HEK293 cells co-expressing beta-arrestin1-polycistronic BRET biosensor assessed as induction of beta-arrestin1 recruitment measured for 5 mins by luminescence detection based BRET assay relative to 10 uM URP; assay type: functional, cell-based
Urotensin-2 receptor [21] = molecular target: T2, Urotensin-2 receptor; experiment: Agonist activity at human UT receptor expressed in HEK293 cells co-expressing Gq-polycistronic BRET biosensor assessed as induction of Gq activation measured for 5 mins by luminescence detection based BRET assay; assay type: functional, cell-based
[22] = molecular target: T1, Urotensin-2 receptor (Rattus norvegicus); experiment: as §2, with “1” for “1 x 10^-8M”, “stimulation relative to KCl-induced contraction” for “stimulation”; assay type: functional
[23] = molecular target: T3, Urotensin-2 receptor (Homo sapiens); experiment: Bias factor, ratio of deltalog(Tau/KA) for agonist activity at human UT receptor expressed in HEK293 cells co-expressing Gq-polycistronic BRET biosensor assessed as induction of Gq activation by luminescence detection based BRET assay to deltalog(Tau/KA) for agonist activity at human UT receptor expressed in HEK293 cells co-expressing beta-arrestin1-polycistronic BRET biosensor assessed as induction of beta-arrestin1 recruitment by luminescence detection based BRET assay; assay type: functional, cell-based
Urotensin-2 receptor [24] = molecular target: T2, Urotensin-2 receptor; experiment: Agonist activity at human UT receptor expressed in HEK293 cells co-expressing beta-arrestin1-polycistronic BRET biosensor assessed as induction of beta-arrestin1 recruitment measured for 5 mins by luminescence detection based BRET assay; assay type: functional, cell-based
[25] = molecular target: T3, Urotensin-2 receptor (Homo sapiens); experiment: Selectivity index, change in deltalog(Tau/KA) for agonist activity at human UT receptor expressed in HEK293 cells co-expressing Gq-polycistronic BRET biosensor assessed as induction of Gq activation by luminescence detection based BRET assay to deltalog(Tau/KA) for agonist activity at human UT receptor expressed in HEK293 cells co-expressing beta-arrestin1-polycistronic BRET biosensor assessed as induction of beta-arrestin1 recruitment by luminescence detection based BRET assay; assay type: functional, cell-based
[26] = molecular target: T1, Urotensin-2 receptor (Rattus norvegicus); experiment: Antagonist activity at UT receptor in Sprague-Dawley rat thoracic aortic ring assessed as reduction in urotensin-2-induced contraction by measuring Emax for human urotensin-2-induced contraction at 1 x 10^-7M uM pre-incubated for 30 mins before urotensin-2 stimulation (reference value: 101 +/- 4%); assay type: functional
[27] = molecular target: T3, Urotensin-2 receptor (Homo sapiens); experiment: Bias factor, ratio of deltalog(Tau/KA) for agonist activity at human UT receptor expressed in HEK293 cells co-expressing beta-arrestin1-polycistronic BRET biosensor assessed as induction of beta-arrestin1 recruitment by luminescence detection based BRET assay to deltalog(Tau/KA) for agonist activity at human UT receptor expressed in HEK293 cells co-expressing Gq-polycistronic BRET biosensor assessed as induction of Gq activation by luminescence detection based BRET assay; assay type: functional, cell-based
[28] = molecular target: T3, Urotensin-2 receptor (Homo sapiens); experiment: Selectivity index, change in deltalog(Tau/KA) for agonist activity at human UT receptor expressed in HEK293 cells co-expressing G12-polycistronic BRET biosensor assessed as induction of G12 activation by luminescence detection based BRET assay to deltalog(Tau/KA) for agonist activity at human UT receptor expressed in HEK293 cells co-expressing Gq-polycistronic BRET biosensor assessed as induction of Gq activation by luminescence detection based BRET assay; assay type: functional, cell-based
[29] = molecular target: T1, Urotensin-2 receptor (Rattus norvegicus); experiment: Agonist activity at UT receptor in Sprague-Dawley rat thoracic aortic ring assessed as induction of contraction at 10^-5M relative to KCl-induced contraction; assay type: functional

Row | EC50 (Urotensin-2 receptor [3]) [nM] | Emax [4] [%] | Emax [5] [%] | fold change (FC) [7] | pEC50 [9] | fold change (FC) [10] | Emax [11] [%] | Emax [12] [%] | IC50 (Urotensin-2 receptor [14]) [nM] | fold change (FC) [15] | deltadeltalog(Tau/KA) (beta-arrestin1 selectivity index) [16] | fold change (FC) [17] | pEC50 [18] | EC50 (Urotensin-2 receptor [19]) [nM] | Emax [20] [%] | Emax [22] [%] | fold change (FC) [23] | selectivity index, deltadeltalog(Tau/KA) [25] | fold change (FC) [27] | deltalog(Tau/KA) [28] | Compound | other results
1 | 120 | 25 | 31 | 1.4 | Active | 0.3 | 80 | 91 | 5.37 | 3.9 | -0.6 | 0.7 | Active | 28.8 | 76 | 23 | 2.8 | 0.45 | 0.4 | 0.15 | CC(C)[C@H](NC(=O)[C@@H]1CSSC[C@H](NC(=O)[C@H](C)N)C(=O)N[C@@H](Cc2ccc(-c3ccccc3)cc2)C(=O)N[C@@H](Cc2c[nH]c3ccccc23)C(=O)N[C@@H](CCCCN)C(=O)N[C@@H](Cc2ccc(O)cc2)C(=O)N1)C(=O)O | Emax [1]: 75%; Emax [2]: 94%; Emax [6]: 104%; Emax [8]: 60%; Emax [13]: 78%; EC50 (Urotensin-2 receptor [21]): 15.1 nM; EC50 (Urotensin-2 receptor [24]): 603 nM; Emax [26]: 58%
2 | 148 | 28 | 25 | 1.8 | Active | 0.6 | 78 | 102 | 26.9 | 1.6 | -0.22 | 0.6 | Active | 32.4 | 94 | 15 | 0.9 | -0.03 | 1.1 | 0.24 | CC(C)[C@H](NC(=O)[C@@H]1CSSC[C@H](NC(=O)[C@H](C)N)C(=O)N[C@@H](Cc2ccc(C#Cc3ccccc3)cc2)C(=O)N[C@@H](Cc2c[nH]c3ccccc23)C(=O)N[C@@H](CCCCN)C(=O)N[C@@H](Cc2ccc(O)cc2)C(=O)N1)C(=O)O | EC50 (Urotensin-2 receptor [21]): 27.5 nM; EC50 (Urotensin-2 receptor [24]): 759 nM
3 | – | – | 107 | 4.3 | – | 1.2 | 91 | 91 | – | 0.8 | 0.09 | 0.2 | – | – | 97 | 95 | 0.2 | -0.73 | 5.3 | 0.64 | CC(C)[C@H](NC(=O)[C@@H]1CSSC[C@H](NC(=O)[C@H](N)CC(=O)O)C(=O)N[C@@H](Cc2ccc(I)cc2)C(=O)N[C@@H](Cc2c[nH]c3ccccc23)C(=O)N[C@@H](CCCCN)C(=O)N[C@@H](Cc2ccc(O)cc2)C(=O)N1)C(=O)O | Emax [29]: 49%
